{"source": "patent US20230085307A1", "about": "“PYRIDAZINONE COMPOUND AND HERBICIDE” (NISSAN CHEMICAL CORPORATION, priority 2019, published 2023)", "key": {"late watergrass": {"test_system": "late watergrass", "experiment": "Test Example 1: herbicidal activity, application before weed generation under submerged conditions (Table 16, symbol A)", "type": "in vivo, late watergrass (Echinochloa oryzicola)", "conditions": "320 g/ha applied herbicide", "in_short": "(§1)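 Submerged Wagner pots (alluvial soil, 4 cm water) sown with weed seeds and planted with 2.5-leaf rice seedlings; emulsifiable concentrate diluted in water applied to water surface on sowing day. Held in greenhouse at 25-30 °C; injury scored 0-5 by herbicidal rate after three weeks.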"}, "Japanese bulrush": {"test_system": "Japanese bulrush", "experiment": "Test Example 1: herbicidal activity, application before weed generation under submerged conditions (Table 16, symbol B)", "type": "in vivo, Japanese bulrush (Schoenoplectus juncoides)", "conditions": "320 g/ha applied herbicide", "in_short": "as §1"}, "oval-leafed pondweed": {"test_system": "oval-leafed pondweed", "experiment": "Test Example 1: herbicidal activity, application before weed generation under submerged conditions (Table 16, symbol C)", "type": "in vivo, oval-leafed pondweed (Monochoria vaginalis)", "conditions": "320 g/ha applied herbicide", "in_short": "as §1"}, "barnyard grass [1]": {"test_system": "barnyard grass", "experiment": "Test Example 3: herbicidal effect by foliage application, Wagner pot (Table 18, symbol H)", "type": "in vivo, barnyard grass (Echinochloa crus-galli)", "conditions": "amount of applied herbicide 320 g/ha", "in_short": "(§2)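 Plants were sown in alluvial soil held under 0.1–0.5 cm standing water and grown 14 days in a greenhouse at 25–30 °C. An emulsifiable formulation, water-diluted to the set dose, was then sprayed onto the foliage, and effects were scored three weeks later using previously defined criteria.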"}, "Chinese sprangletop": {"test_system": "Chinese sprangletop", "experiment": "Test Example 3: herbicidal effect by foliage application, Wagner pot (Table 18, symbol D)", "type": "in vivo, chinese sprangletop (Leptochloa chinensis)", "conditions": "amount of applied herbicide 320 g/ha", "in_short": "as §2"}, "rice flat sedge": {"test_system": "rice flat sedge", "experiment": "Test Example 3: herbicidal effect by foliage application, Wagner pot (Table 18, symbol E)", "type": "in vivo, rice flat sedge (Cyperus iria)", "conditions": "amount of applied herbicide 320 g/ha", "in_short": "as §2"}, "southern crabgrass": {"test_system": "southern crabgrass", "experiment": "Test Example 4: herbicidal effect by soil treatment (Table 19, symbol F)", "type": "in vivo, southern crabgrass (Digitaria ciliaris)", "conditions": "amount of applied herbicide 320 g/ha", "in_short": "(§3)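 Herbicidal effect was rated 3 weeks after treatment, using the scoring criteria of an earlier test. The compound, formulated as an emulsion and diluted in water to a set herbicide amount, had been sprayed uniformly on soil over freshly sown seeds. Growth took place in a greenhouse at 25° C. to 30° C.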"}, "green foxtail": {"test_system": "green foxtail", "experiment": "Test Example 4: herbicidal effect by soil treatment (Table 19, symbol G)", "type": "in vivo, green foxtail (Setaria viridis)", "conditions": "amount of applied herbicide 320 g/ha", "in_short": "as §3"}, "barnyard grass [2]": {"test_system": "barnyard grass", "experiment": "Test Example 4: herbicidal effect by soil treatment (Table 19, symbol H)", "type": "in vivo, barnyard grass (Echinochloa crus-galli)", "conditions": "amount of applied herbicide 320 g/ha", "in_short": "as §3"}, "wild oat": {"test_system": "wild oat", "experiment": "Test Example 4: herbicidal effect by soil treatment (Table 19, symbol I)", "type": "in vivo, wild oat (Avena fatua)", "conditions": "amount of applied herbicide 320 g/ha", "in_short": "as §3"}, "blackgrass": {"test_system": "blackgrass", "experiment": "Test Example 4: herbicidal effect by soil treatment (Table 19, symbol J)", "type": "in vivo, blackgrass (Alopecurus myosuroides)", "conditions": "amount of applied herbicide 320 g/ha", "in_short": "as §3"}, "Italian ryegrass": {"test_system": "Italian ryegrass", "experiment": "Test Example 4: herbicidal effect by soil treatment (Table 19, symbol K)", "type": "in vivo, Italian ryegrass (Lolium multiflorum)", "conditions": "amount of applied herbicide 320 g/ha", "in_short": "as §3"}, "windgrass": {"test_system": "windgrass", "experiment": "Test Example 4: herbicidal effect by soil treatment (Table 19, symbol L)", "type": "in vivo, windgrass (Apera spica-venti)", "conditions": "amount of applied herbicide 320 g/ha", "in_short": "as §3"}, "velvetleaf": {"test_system": "velvetleaf", "experiment": "Test Example 4: herbicidal effect by soil treatment (Table 19, symbol M)", "type": "in vivo, velvetleaf (Abutilon theophrasti)", "conditions": "amount of applied herbicide 320 g/ha", "in_short": "as §3"}, "redroot pigweed": {"test_system": "redroot pigweed", "experiment": "Test Example 4: herbicidal effect by soil treatment (Table 19, symbol N)", "type": "in vivo, redroot pigweed (Amaranthus retroflexus)", "conditions": "amount of applied herbicide 320 g/ha", "in_short": "as §3"}, "lambsquarters": {"test_system": "lambsquarters", "experiment": "Test Example 4: herbicidal effect by soil treatment (Table 19, symbol O)", "type": "in vivo, lambsquarters (Chenopodium album)", "conditions": "amount of applied herbicide 320 g/ha", "in_short": "as §3"}, "chickweed": {"test_system": "chickweed", "experiment": "Test Example 4: herbicidal effect by soil treatment (Table 19, symbol P)", "type": "in vivo, common chickweed (Stellaria media)", "conditions": "amount of applied herbicide 320 g/ha", "in_short": "as §3"}, "persian speedwell": {"test_system": "persian speedwell", "experiment": "Test Example 4: herbicidal effect by soil treatment (Table 19, symbol R)", "type": "in vivo, Persian speedwell (Veronica persica)", "conditions": "amount of applied herbicide 320 g/ha", "in_short": "as §3"}}, "data": [{"smiles": "COc1ccc(-c2sc3ccc(F)cc3c2-c2c(O)c(C)nn(C)c2=O)cc1Cl", "note": "[2-370]", "values": [{"measurement": "Herbicidal effect on A: late watergrass (grade 0-5)", "setting": "late watergrass", "result": "3 (Herbicidal rate of 40% or more and less than 70%)"}, {"measurement": "Herbicidal effect on B: Japanese bulrush (grade 0-5)", "setting": "Japanese bulrush", "result": "0 (Herbicidal rate of 5% or less (almost no effect))"}, {"measurement": "Herbicidal effect on C: oval-leafed pondweed (grade 0-5)", "setting": "oval-leafed pondweed", "result": "0 (Herbicidal rate of 5% or less (almost no effect))"}, {"measurement": "herbicidal effect on H: barnyard grass", "setting": "barnyard grass [1]", "result": "3 (Herbicidal rate of 40% or more and less than 70%)"}, {"measurement": "herbicidal effect on D: Chinese sprangletop", "setting": "Chinese sprangletop", "result": "2 (Herbicidal rate of 20% or more and less than 40%)"}, {"measurement": "herbicidal effect on E: rice flat sedge", "setting": "rice flat sedge", "result": "5 (Herbicidal rate of 90% or more (almost completely withered))"}, {"measurement": "herbicidal effect, F: southern crabgrass", "setting": "southern crabgrass", "result": "0 (Herbicidal rate of 5% or less (almost no effect))"}, {"measurement": "herbicidal effect, G: green foxtail", "setting": "green foxtail", "result": "0 (Herbicidal rate of 5% or less (almost no effect))"}, {"measurement": "herbicidal effect, H: barnyard grass", "setting": "barnyard grass [2]", "result": "0 (Herbicidal rate of 5% or less (almost no effect))"}, {"measurement": "herbicidal effect, I: wild oat", "setting": "wild oat", "result": "0 (Herbicidal rate of 5% or less (almost no effect))"}, {"measurement": "herbicidal effect, J: blackgrass", "setting": "blackgrass", "result": "0 (Herbicidal rate of 5% or less (almost no effect))"}, {"measurement": "herbicidal effect, K: Italian ryegrass", "setting": "Italian ryegrass", "result": "0 (Herbicidal rate of 5% or less (almost no effect))"}, {"measurement": "herbicidal effect, L: windgrass", "setting": "windgrass", "result": "0 (Herbicidal rate of 5% or less (almost no effect))"}, {"measurement": "herbicidal effect, M: velvetleaf", "setting": "velvetleaf", "result": "1 (Herbicidal rate of 5% or more and less than 20%)"}, {"measurement": "herbicidal effect, N: redroot pigweed", "setting": "redroot pigweed", "result": "2 (Herbicidal rate of 20% or more and less than 40%)"}, {"measurement": "herbicidal effect, O: lambsquarters", "setting": "lambsquarters", "result": "4 (Herbicidal rate of 70% or more and less than 90%)"}, {"measurement": "herbicidal effect, P: chickweed", "setting": "chickweed", "result": "3 (Herbicidal rate of 40% or more and less than 70%)"}, {"measurement": "herbicidal effect, R: persian speedwell", "setting": "persian speedwell", "result": "4 (Herbicidal rate of 70% or more and less than 90%)"}]}]}
